Assay results from patent publication US5574008A, “Biologically active fragments of glucagon-like insulinotropic peptide” (Eli Lilly and Company, priority 1994, dated 1996).

Target: T1, rat GLP-1 receptor (Rattus norvegicus, UniProt P32301)
T1 construct: expressed in transfected cells; host or cells: Dihydrofolate reductase-deficient Chinese hamster ovary cell line DXB-11; membrane preparation
T1 sequence (P32301 22-463): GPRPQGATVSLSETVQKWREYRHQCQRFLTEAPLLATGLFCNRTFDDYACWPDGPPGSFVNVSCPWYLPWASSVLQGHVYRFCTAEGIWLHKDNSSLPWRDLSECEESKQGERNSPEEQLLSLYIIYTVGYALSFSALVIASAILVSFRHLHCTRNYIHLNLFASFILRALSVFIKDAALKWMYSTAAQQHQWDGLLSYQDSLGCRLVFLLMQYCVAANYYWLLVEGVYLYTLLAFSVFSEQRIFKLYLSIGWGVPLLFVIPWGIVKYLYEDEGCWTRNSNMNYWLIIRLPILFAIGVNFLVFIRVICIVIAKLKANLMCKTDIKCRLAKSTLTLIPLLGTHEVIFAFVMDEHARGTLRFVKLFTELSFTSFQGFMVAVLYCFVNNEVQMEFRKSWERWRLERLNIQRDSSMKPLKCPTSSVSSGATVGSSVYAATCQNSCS
Test: In vitro GLP-1 agonist cAMP assay (particle concentration fluorescence immunoassay, membrane preparation)
Assay type: biochemical
Experimental: Cells were grown to confluency in 10% dialyzed fetal bovine serum/high glucose Dulbecco's Modified Eagle Medium with 0.1% proline at 37° C. The cell were then harvested, and membranes were prepared by first washing the cells with phosphate buffered saline (PBS), then twice with cold buffer (25 mM 4-(2-hydroxyethyl)-1 piperazineethanesulfonic acid (HEPES), 2 mM MgCl2, 1 mM ethylenedinitrilo-tetraacetic acid (EDTA), 20 μg/ml Leupeptin, 1 mM phenylmethyl sulfonyl fluoride (PMSF), 2 μg/ml Aprotinin, 50 μg/ml Trypsin Inhibitor, pH 8.0). The washed cells were resuspended in cold buffer, lysed in a glass Teflon homogenizer and then centrifuged at 35,300 g for 30 minutes at 4° C. The supernatant was removed and the pellet resuspended in cold buffer and homogenized. Two hundred μl aliquots (3.2 mg/ml) were stored at -80° C.
Briefly, 10 μl of membrane prep (80 μg/ml) was preincubated with 10 μl of test compound or reference compound in buffer (25 mM HEPES, 0.2% (w/v) bovine serum albumin (BSA), pH 7.6) at 32° C. for 10 minutes. Five μl of reaction buffer (25 mM HEPES, 0.2% (w/v) BSA, 13 mM (CH3 C00)2 Mg.4H2 O, 4 mM adenosine-5'-triphosphate (ATP), 40 nM guanosine 5'-O-3'thiotriphosphate (GTP-∂-s), 25 mM creatine phosphate, creatine kinase 250 U/ml, 1 mM 3-Isobutyl-1-methyl xanthine (IBMX), pH 7.6) was added and incubated for an additional 30 minutes. Incubations were stopped by adding 25 μl 10 mM EDTA and fluorescent tracer (cAMP-β phycoerythrin conjugate).
This assay, a particle concentration fluorescence immunoassay, was based on the competition between unlabelled cAMP and a fixed amount of fluorescent labelled cAMP for a limited number of binding sites on a cAMP specific antibody. By keeping the quantity of fluorescent ligand and antibody fixed, the amount of fluorescent ligand bound by the antibody was inversely proportional to the concentration of unlabelled cAMP. The antibody-bound cAMP was then captured by anti-rabbit IgG coated assay particles. Separation of the bound antibody fraction was achieved by filtration on Fluoricon®-Ca Assay Plates. After measuring the fluorescence in the pellet, the amount of bound fluorescent cAMP was calculated. The rate of cAMP production (pmol/min/mg) was then determined by interpolation from a standard curve.

CC[C@H](C)[C@H](NC(=O)[C@H](Cc1ccccc1)NC(=O)[C@H](CCC(=O)O)NC(=O)[C@H](CCCCN)NC(=O)[C@H](C)NC(=O)[C@H](C)NC(=O)[C@H](CCC(N)=O)NC(=O)CNC(=O)[C@H](CCC(=O)O)NC(=O)[C@H](CC(C)C)NC(=O)[C@H](Cc1ccc(O)cc1)NC(=O)[C@H](CO)NC(=O)[C@H](CO)NC(=O)[C@@H](NC(=O)[C@H](CC(=O)O)NC(=O)[C@H](CO)NC(=O)[C@@H](NC(=O)[C@H](Cc1ccccc1)NC(=O)[C@@H](NC(=O)CNC(=O)[C@@H](N)CCC(=O)O)[C@@H](C)O)[C@@H](C)O)C(C)C)C(=O)N[C@@H](C)C(=O)N[C@@H](Cc1c[nH]c2ccccc12)C(=O)N[C@@H](CC(C)C)C(=O)N[C@H](C(=O)N[C@@H](CCCCN)C(=O)NCC(=O)N[C@@H](CCCNC(=N)N)C(N)=O)C(C)C [GLP-1(9-36)NH2]
cAMP produced (Dose 0.005 nM): 21.165 pmol/min/mg | cAMP produced (Dose 0.01 nM): 21.743 pmol/min/mg | cAMP produced (Dose 0.02 nM): 20.678 pmol/min/mg | cAMP produced (Dose 0.05 nM): 22.602 pmol/min/mg | cAMP produced (Dose 0.1 nM): 22.033 pmol/min/mg | cAMP produced (Dose 0.4 nM): 21.460 pmol/min/mg | cAMP produced (Dose 1 nM): 21.588 pmol/min/mg | cAMP produced (Dose 4 nM): 21.046 pmol/min/mg | cAMP produced (Dose 10 nM): 22.320 pmol/min/mg | cAMP produced (Dose 100 nM): 19.156 pmol/min/mg
